How the values were obtained:
HCT116 MTAP+/+ = assay: Inhibition of cellular proliferation (Cell Titer Glo), HCT116 MTAP+/+; type: cell-based; settings: Homo sapiens, HCT-116, 96 h, Table 5a, 4 days, read-out: 4 Day Relative Growth Inhibition (MTAP +/+)
Experimental: (§1) Test compound impact on cancer cell growth was assessed by treating cancer cells with compound for 4 days and then measuring proliferation using an ATP-based cell proliferation readout (Cell Titer Glo, Promega Corporation).
(§2) In a typical assay an isogenic pair of HCT116 human colon carcinoma cell lines which vary only in MTAP deletion status (HCT116 MTAP+/+ and HCT116 MTAP−/−) were plated in 96-well dishes at appropriate cell density. Following 24 hours, cells were then treated with the candidate MAT2A inhibitor. […] Compound was then transferred to a working stock plate in cell culture media by adding 5 μL of compound in DMSO to 495 μL of cell culture media. This working stock was then added to cells via a further 5-fold dilution, by adding 25 μL of working stock to 100 μL of cells in culture media. Following compound addition, cells were incubated at 37° C./5% CO2 for 4 days.
(§3) The plate was then covered with aluminum foil and shaken for 15 minutes to ensure complete mixing and full cell lysis. […] This luminescence measure was converted to a proliferation index by subtracting from each data point the ATP luminescence signal measured from a bank (no cells) well and dividing by the ATP luminescence signal measured in 0.2% DMSO control well adjusted for signal in blank well.

MAT2A homodimer = target: T1, MAT2A homodimer (Homo sapiens, UniProt P31153); assay: MAT2A biochemical assay (liberated phosphate, PiColorLock Gold); settings: Table 5a; MAT2A biochemical assay; read-out: Enzyme Inhibition
T1 construct: inferred from the Ni sepharose purification and imidazole elution; made in house; host or cells: SF9 insect cells, recombinant baculovirus (Bac to Bac, pFASTBAC1)
T1 sequence (P31153 whole entry): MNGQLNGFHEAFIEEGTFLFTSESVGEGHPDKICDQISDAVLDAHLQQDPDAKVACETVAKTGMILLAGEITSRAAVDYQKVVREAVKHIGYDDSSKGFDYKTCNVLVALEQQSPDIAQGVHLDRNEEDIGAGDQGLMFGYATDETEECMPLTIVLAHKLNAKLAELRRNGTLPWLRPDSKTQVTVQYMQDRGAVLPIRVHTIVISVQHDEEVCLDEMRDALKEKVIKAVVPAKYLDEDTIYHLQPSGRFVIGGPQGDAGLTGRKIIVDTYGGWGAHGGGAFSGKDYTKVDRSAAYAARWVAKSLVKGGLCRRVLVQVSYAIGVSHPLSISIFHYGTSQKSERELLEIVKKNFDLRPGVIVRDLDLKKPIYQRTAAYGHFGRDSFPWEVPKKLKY
Method in brief: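 Readout is liberated phosphate (PiColorLock Gold), stoichiometric with SAM production, quantified against a potassium phosphate standard curve. Enzyme: recombinant MAT2A homodimer from Sf9, equilibrated 60 min at 25 °C with compound before 60 min reaction with substrate mix containing 500 μM ATP and 400 μM L-methionine.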

HCT116 MTAP-/- = assay: Inhibition of cellular proliferation (Cell Titer Glo), HCT116 MTAP-/-; type: cell-based, human; settings: Homo sapiens, HCT-116, 96 h, Table 5a, 4 days, read-out: 4 Day Relative Growth Inhibition (MTAP −/−)
Experimental: as §1, §2, §3

[1] = test system: SAM in HCT116 MTAP-deleted cells; assay: Cellular assay of target engagement (SAM), LC-MS/MS; type: cell-based, human; settings: Homo sapiens, HCT-116, Table 5a, 72 h, read-out: Cell 72 h SAM Inhibition (MTAP −/−)
Experimental: Measurement of MAT2A activity in cells was made by direct quantitation of the abundance of the product of its enzymatic activity, SAM. Cancer cells were treated with candidate MAT2A inhibitors for a suitable incubation period, and the cells were then lysed using a reagent which quenched any further enzyme activity. Soluble metabolites including SAM were collected and SAM itself was directly measured from the lysate using quantitative LC-MS/MS.
A typical assay was performed using an HCT116 human colon carcinoma cell line which was genetically engineered to delete the MTAP gene (commercially available from Horizon Discovery). […] Cells were plated in 96-well dishes at appropriate cell density. Following 24 hours, cells were then treated with the candidate MAT2A inhibitor. […] Compound was then transferred to a working stock plate in cell culture media by adding 5 μL of compound in DMSO to 495 μL of cell culture media. This working stock was then added to cells via a further 5-fold dilution, by adding 25 μL of working stock to 100 μL of cells in culture media. Following compound addition, cells were incubated at 37° C./5% CO2 for 72 hrs.
To quantitate SAM levels following compound treatment, cells were gently washed once in ammonium carbonate buffer (75 mM at pH 7.4), placed on dry ice, and lysed with metabolite extraction buffer (80% cold methanol and 20% water (v/v) with acetic acid at 1M final concentration with 200 ng/mL deuterated d3-SAM as internal control). Following centrifugation at 4° C. at 3,200 rpm for 30 minutes, the supernatant was collected and stored at −80° C. until analysis by Liquid Chromatography with tandem Mass Spectrometry (LC-MS/MS). LC-MS/MS analysis was performed using an API6500 Mass Spectrometer (Sciex, Framingham, Mass., USA) operating in positive ion spray mode and equipped with a Waters UPLC Acquity (Waters, Milford, Mass., USA) BEH Amide column.

IC50 (HCT116 MTAP+/+) [nM]	IC50 (MAT2A homodimer) [nM]	IC50 (HCT116 MTAP-/-) [nM]	IC50 [1] [nM]	Compound
> 1000	< 100	100 to 1000	100 to 1000	CCOc1ccc2c(n1)N(c1ccc(OC(F)F)cc1)C(=O)N(c1ccc3nccn3c1)C2 [Example 101, 1-(4-(difluoromethoxy)phenyl)-7-ethoxy-3-(imidazo[1,2-a]pyridin-6-yl)-3,4-dihydropyrido[2,3-d]pyrimidin-2(1H)-one]
> 1000	< 100	100 to 1000	< 100	[2H]C([2H])([2H])Oc1ccc(N2C(=O)N(c3ccc4ncsc4c3)Cc3ccc(OCC(F)F)nc32)cc1 [Example 102, 3-(benzo[d]thiazol-6-yl)-7-(2,2-difluoroethoxy)-1-(4-(methoxy-d3)phenyl)-3,4-dihydropyrido[2,3-d]pyrimidin-2(1H)-one]
> 1000	< 100	< 100	< 100	[2H]C([2H])([2H])Oc1ccc(N2C(=O)N(c3ccc4nn(C)c(OC([2H])([2H])[2H])c4c3)Cc3ccc(OCC(F)F)nc32)cc1 [Example 103, 7-(2,2-difluoroethoxy)-3-(3-(methoxy-d3)-2-methyl-2H-indazol-5-yl)-1-(4-(methoxy-d3)phenyl)-3,4-dihydropyrido[2,3-d]pyrimidin-2(1H)-one]
100 to 1000	< 100	< 100	< 100	[2H]C([2H])([2H])Oc1ccc(N2C(=O)N(c3ccc4nn(C)c(OC)c4c3)Cc3ccc(OCC(F)F)nc32)cc1 [Example 104, 7-(2,2-difluoroethoxy)-3-(3-methoxy-2-methyl-2H-indazol-5-yl)-1-(4-(methoxy-d3)phenyl)-3,4-dihydropyrido[2,3-d]pyrimidin-2(1H)-one]
100 to 1000	< 100	< 100	< 100	[2H]C([2H])([2H])Oc1ccc(N2C(=O)N(c3ccc4nn(C)c(C)c4c3)Cc3ccc(OCC(F)F)nc32)cc1 [Example 105, 7-(2,2-difluoroethoxy)-3-(2,3-dimethyl-2H-indazol-5-yl)-1-(4-(methoxy-d3)phenyl)-3,4-dihydropyrido[2,3-d]pyrimidin-2(1H)-one]
> 1000	< 100	100 to 1000	< 100	CCOc1ccc2c(n1)N(c1ccc(OC(F)F)cc1)C(=O)N(c1ccn3nccc3c1)C2 [Example 106, 1-(4-(difluoromethoxy)phenyl)-7-ethoxy-3-(pyrazolo[1,5-a]pyridin-5-yl)-3,4-dihydropyrido[2,3-d]pyrimidin-2(1H)-one]
> 1000	< 100	100 to 1000	100 to 1000	CCOc1ccc2c(n1)N(c1ccc(OC(F)F)cc1)C(=O)N(c1ccc(=O)n(C)c1)C2 [Example 107, 1-(4-(difluoromethoxy)phenyl)-7-ethoxy-3-(1-methyl-6-oxo-1,6-dihydropyridin-3-yl)-3,4-dihydropyrido[2,3-d]pyrimidin-2(1H)-one]
> 1000	< 100	100 to 1000	100 to 1000	CCOc1ccc2c(n1)N(c1ccc(OC(F)F)cc1)C(=O)N(c1ccc3nncn3c1)C2 [Example 108, 3-([1,2,4]triazolo[4,3-a]pyridin-6-yl)-1-(4-(difluoromethoxy)phenyl)-7-ethoxy-3,4-dihydropyrido[2,3-d]pyrimidin-2(1H)-one]
> 1000	< 100	100 to 1000	< 100	CCOc1ccc2c(n1)N(c1ccc(OC(F)F)cc1)C(=O)N(c1ccc3nnn(C)c3c1)C2 [Example 109]
–	< 100	100 to 1000	100 to 1000	COc1ccc(N2C(=O)N(c3ccc4nccnc4c3)Cc3cnc(NCC(F)(F)F)nc32)cc1 [Example 233, 1-(4-methoxyphenyl)-3-(quinoxalin-6-yl)-7-((2,2,2-trifluoroethyl)amino)-3,4-dihydropyrimido[4,5-d]pyrimidin-2(1H)-one]
